#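 Step 1: Grow cells in 96-well plates. Step 2: Expose to compound for 48 hours at 5 concentrations. Step 3: Interpolate endpoints linearly; if unreached, use highest concentration. TGI is the concentration that stops growth completely.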
# Experiments:
# Assay in all cases: inhibition of tumour cell growth, NCI panel, 48 h
# LXFL 529 NSCLC = tested on: LXFL 529 NSCLC
# HOP-92 NSCLC = tested on: HOP-92 NSCLC
# SF-268 CNS = tested on: SF-268 CNS
# OVCAR-4 ovarian = tested on: OVCAR-4 ovarian
# HCC-2998 colon = tested on: HCC-2998 colon
# K-562 leukemia = tested on: K-562 leukemia
# XF 498 CNS = tested on: XF 498 CNS
# UACC-62 melanoma = tested on: UACC-62 melanoma
# MALME-3M melanoma = tested on: MALME-3M melanoma
# DLD-1 colon = tested on: DLD-1 colon
# KM20L2 colon = tested on: KM20L2 colon
# MOLT-4 leukemia = tested on: MOLT-4 leukemia
# HL-60(TB) leukemia = tested on: HL-60(TB) leukemia
# NCI-H522 lung = tested on: NCI-H522 lung
# UACC-257 melanoma = tested on: UACC-257 melanoma
# U251 CNS = tested on: U251 CNS
# UO-31 renal = tested on: UO-31 renal
# KM12 colon = tested on: KM12 colon
# 786-0 renal = tested on: 786-0 renal
# COLO 205 colon = tested on: COLO 205 colon
# RPMI-8226 leukemia = tested on: RPMI-8226 leukemia
# OVCAR-8 ovarian = tested on: OVCAR-8 ovarian
# SK-MEL-2 melanoma = tested on: SK-MEL-2 melanoma
# M14 melanoma = tested on: M14 melanoma
# SF-295 CNS = tested on: SF-295 CNS
# NCI-H23 lung = tested on: NCI-H23 lung
# A549 NSCLC = tested on: A549 NSCLC
# SNB-75 CNS = tested on: SNB-75 CNS
# SN12C renal = tested on: SN12C renal
# HCT-116 colon = tested on: HCT-116 colon
# SW-620 colon = tested on: SW-620 colon
# SNB-78 CNS = tested on: SNB-78 CNS
# OVCAR-5 ovarian = tested on: OVCAR-5 ovarian
# LOX IMVI melanoma = tested on: LOX IMVI melanoma
# HCT-15 colon = tested on: HCT-15 colon
# CCRF-CEM leukemia = tested on: CCRF-CEM leukemia
# TK-10 renal = tested on: TK-10 renal
# RXF-631 renal = tested on: RXF-631 renal
# HT29 colon = tested on: HT29 colon
# A498 renal = tested on: A498 renal
# SF-539 CNS = tested on: SF-539 CNS
# EKVX NSCLC = tested on: EKVX NSCLC
# SK-MEL-28 melanoma = tested on: SK-MEL-28 melanoma
# ACHN renal = tested on: ACHN renal
# NCI-H460 lung = tested on: NCI-H460 lung
# HOP-62 NSCLC = tested on: HOP-62 NSCLC
# IGROV1 ovarian = tested on: IGROV1 ovarian
# SK-OV-3 ovarian = tested on: SK-OV-3 ovarian
# SNB-19 CNS = tested on: SNB-19 CNS
# DMS 114 small cell lung = tested on: DMS 114 small cell lung
# SK-MEL-5 melanoma = tested on: SK-MEL-5 melanoma
# DMS 273 small cell lung = tested on: DMS 273 small cell lung
# OVCAR-3 ovarian = tested on: OVCAR-3 ovarian
# CAKI-1 renal = tested on: CAKI-1 renal
# SR leukemia = tested on: SR leukemia
# RXF 393 renal = tested on: RXF 393 renal
# M19-MEL melanoma = tested on: M19-MEL melanoma
# NCI-H226 lung = tested on: NCI-H226 lung
smiles,measurement,setting,value
Cc1cc2c(c(C(N)=O)c1C)-c1cccc(Cl)c1C2=O,TGI,LXFL 529 NSCLC,> 100 µM
same,TGI,HOP-92 NSCLC,> 100 µM
same,TGI,SF-268 CNS,> 100 µM
same,TGI,OVCAR-4 ovarian,> 100 µM
same,TGI,HCC-2998 colon,> 100 µM
same,TGI,K-562 leukemia,> 100 µM
same,TGI,XF 498 CNS,> 100 µM
same,TGI,UACC-62 melanoma,> 100 µM
same,TGI,MALME-3M melanoma,> 100 µM
same,TGI,DLD-1 colon,> 100 µM
same,TGI,KM20L2 colon,> 100 µM
same,TGI,MOLT-4 leukemia,> 100 µM
same,TGI,HL-60(TB) leukemia,> 100 µM
same,TGI,NCI-H522 lung,> 100 µM
same,TGI,UACC-257 melanoma,> 100 µM
same,TGI,U251 CNS,> 100 µM
same,TGI,UO-31 renal,> 100 µM
same,TGI,KM12 colon,> 100 µM
same,TGI,786-0 renal,> 100 µM
same,TGI,COLO 205 colon,> 100 µM
same,TGI,RPMI-8226 leukemia,> 100 µM
same,TGI,OVCAR-8 ovarian,> 100 µM
same,TGI,SK-MEL-2 melanoma,> 100 µM
same,TGI,M14 melanoma,> 100 µM
same,TGI,SF-295 CNS,> 100 µM
same,TGI,NCI-H23 lung,> 100 µM
same,TGI,A549 NSCLC,> 100 µM
same,TGI,SNB-75 CNS,> 100 µM
same,TGI,SN12C renal,> 100 µM
same,TGI,HCT-116 colon,> 100 µM
same,TGI,SW-620 colon,> 100 µM
same,TGI,SNB-78 CNS,> 100 µM
same,TGI,OVCAR-5 ovarian,> 100 µM
same,TGI,LOX IMVI melanoma,> 100 µM
same,TGI,HCT-15 colon,> 100 µM
same,TGI,CCRF-CEM leukemia,> 100 µM
same,TGI,TK-10 renal,> 100 µM
same,TGI,RXF-631 renal,> 100 µM
same,TGI,HT29 colon,> 100 µM
same,TGI,A498 renal,> 100 µM
same,TGI,SF-539 CNS,> 100 µM
same,TGI,EKVX NSCLC,> 100 µM
same,TGI,SK-MEL-28 melanoma,> 100 µM
same,TGI,ACHN renal,> 100 µM
same,TGI,NCI-H460 lung,> 100 µM
same,TGI,HOP-62 NSCLC,> 100 µM
same,TGI,IGROV1 ovarian,> 100 µM
same,TGI,SK-OV-3 ovarian,> 100 µM
same,TGI,SNB-19 CNS,> 100 µM
same,TGI,DMS 114 small cell lung,> 100 µM
same,TGI,SK-MEL-5 melanoma,> 100 µM
same,TGI,DMS 273 small cell lung,> 100 µM
same,TGI,OVCAR-3 ovarian,> 100 µM
CN(O)C(=O)c1ccccc1,TGI,LXFL 529 NSCLC,> 100 µM
same,TGI,HOP-92 NSCLC,> 100 µM
same,TGI,SF-268 CNS,> 100 µM
same,TGI,OVCAR-4 ovarian,> 100 µM
same,TGI,HCC-2998 colon,> 100 µM
same,TGI,K-562 leukemia,> 100 µM
same,TGI,XF 498 CNS,> 100 µM
same,TGI,UACC-62 melanoma,> 100 µM
same,TGI,MALME-3M melanoma,> 100 µM
same,TGI,DLD-1 colon,> 100 µM
same,TGI,KM20L2 colon,> 100 µM
same,TGI,CAKI-1 renal,> 100 µM
same,TGI,MOLT-4 leukemia,> 100 µM
same,TGI,HL-60(TB) leukemia,> 100 µM
same,TGI,NCI-H522 lung,> 100 µM
same,TGI,UACC-257 melanoma,> 100 µM
same,TGI,U251 CNS,> 100 µM
same,TGI,UO-31 renal,> 100 µM
same,TGI,KM12 colon,> 100 µM
same,TGI,786-0 renal,> 100 µM
same,TGI,COLO 205 colon,> 100 µM
same,TGI,RPMI-8226 leukemia,> 100 µM
same,TGI,OVCAR-8 ovarian,> 100 µM
same,TGI,SR leukemia,> 100 µM
same,TGI,M14 melanoma,> 100 µM
same,TGI,SF-295 CNS,> 100 µM
same,TGI,NCI-H23 lung,> 100 µM
same,TGI,A549 NSCLC,> 100 µM
same,TGI,SNB-75 CNS,> 100 µM
same,TGI,SN12C renal,> 100 µM
same,TGI,HCT-116 colon,> 100 µM
same,TGI,SW-620 colon,> 100 µM
same,TGI,RXF 393 renal,> 100 µM
same,TGI,OVCAR-5 ovarian,> 100 µM
same,TGI,M19-MEL melanoma,> 100 µM
same,TGI,LOX IMVI melanoma,> 100 µM
same,TGI,CCRF-CEM leukemia,> 100 µM
same,TGI,TK-10 renal,> 100 µM
same,TGI,RXF-631 renal,> 100 µM
same,TGI,HT29 colon,> 100 µM
same,TGI,SF-539 CNS,> 100 µM
same,TGI,SK-MEL-28 melanoma,> 100 µM
same,TGI,ACHN renal,> 100 µM
same,TGI,NCI-H460 lung,> 100 µM
same,TGI,HOP-62 NSCLC,> 100 µM
same,TGI,IGROV1 ovarian,> 100 µM
same,TGI,SK-OV-3 ovarian,> 100 µM
same,TGI,SNB-19 CNS,> 100 µM
same,TGI,NCI-H226 lung,> 100 µM
same,TGI,DMS 114 small cell lung,> 100 µM
same,TGI,SK-MEL-5 melanoma,> 100 µM
same,TGI,DMS 273 small cell lung,> 100 µM
same,TGI,OVCAR-3 ovarian,> 100 µM
Cc1nc(-c2nc(C)c(C(=O)/C=C/c3ccc(N(C)C)cc3)s2)sc1C(=O)/C=C/c1ccc(N(C)C)cc1,TGI,LXFL 529 NSCLC,> 100 µM
same,TGI,SF-268 CNS,> 100 µM
same,TGI,OVCAR-4 ovarian,> 100 µM
same,TGI,HCC-2998 colon,> 100 µM
same,TGI,K-562 leukemia,> 100 µM
same,TGI,XF 498 CNS,44.6 µM
same,TGI,UACC-62 melanoma,58 µM
same,TGI,MALME-3M melanoma,> 100 µM
same,TGI,DLD-1 colon,> 100 µM
same,TGI,KM20L2 colon,> 100 µM
same,TGI,CAKI-1 renal,> 100 µM
same,TGI,MOLT-4 leukemia,> 100 µM
same,TGI,HL-60(TB) leukemia,> 100 µM
same,TGI,NCI-H522 lung,89.2 µM
same,TGI,UACC-257 melanoma,> 100 µM
same,TGI,U251 CNS,> 100 µM
same,TGI,UO-31 renal,> 100 µM
same,TGI,KM12 colon,> 100 µM
same,TGI,786-0 renal,> 100 µM
same,TGI,COLO 205 colon,> 100 µM
same,TGI,OVCAR-8 ovarian,> 100 µM
same,TGI,SK-MEL-2 melanoma,> 100 µM
same,TGI,SR leukemia,> 100 µM
same,TGI,M14 melanoma,> 100 µM
same,TGI,SF-295 CNS,> 100 µM
same,TGI,NCI-H23 lung,> 100 µM
same,TGI,A549 NSCLC,> 100 µM
same,TGI,SN12C renal,> 100 µM
same,TGI,HCT-116 colon,> 100 µM
same,TGI,SW-620 colon,> 100 µM
same,TGI,RXF 393 renal,> 100 µM
same,TGI,OVCAR-5 ovarian,> 100 µM
same,TGI,M19-MEL melanoma,> 100 µM
same,TGI,LOX IMVI melanoma,> 100 µM
same,TGI,HCT-15 colon,> 100 µM
same,TGI,CCRF-CEM leukemia,> 100 µM
same,TGI,TK-10 renal,> 100 µM
same,TGI,RXF-631 renal,> 100 µM
same,TGI,SF-539 CNS,> 100 µM
same,TGI,EKVX NSCLC,> 100 µM
same,TGI,SK-MEL-28 melanoma,> 100 µM
same,TGI,ACHN renal,> 100 µM
same,TGI,NCI-H460 lung,> 100 µM
same,TGI,HOP-62 NSCLC,> 100 µM
same,TGI,IGROV1 ovarian,> 100 µM
same,TGI,SK-OV-3 ovarian,> 100 µM
same,TGI,SNB-19 CNS,> 100 µM
same,TGI,NCI-H226 lung,> 100 µM
same,TGI,DMS 114 small cell lung,> 100 µM
same,TGI,DMS 273 small cell lung,> 100 µM
same,TGI,OVCAR-3 ovarian,> 100 µM

# — PubChem BioAssay (NCI)
